Results as given in patent US11981658B2, “Substituted aminopyridine compounds as EGFR inhibitors” (YUHAN CORPORATION, priority 2021, dated 2024).
Like-named read-outs stand apart in the source and are kept apart here.

What was measured:
EGFR L858R/T790M/C797S = EGFR L858R/T790M/C797S (Homo sapiens, UniProt P00533, C797S/L858R/T790M); assay: Biochemical EGFR kinase inhibition assay (Lance Ultra TR-FRET), triple mutant L858R/T790M/C797S
Procedure, shortened: (§1)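 Step 1: compound in kinase buffer, 0.003–10 μM. Step 2: kinase reaction 1 h at room temperature. Step 4: TR-FRET read at 615/665 nm; IC50 calculated.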

EGFR L858R/C797S = EGFR L858R/C797S (Homo sapiens, UniProt P00533, C797S/L858R); assay: Biochemical EGFR kinase inhibition assay (Lance Ultra TR-FRET), double mutant L858R/C797S
Chain of EGFR L858R/C797S (P00533 25-1210 C797S/L858R): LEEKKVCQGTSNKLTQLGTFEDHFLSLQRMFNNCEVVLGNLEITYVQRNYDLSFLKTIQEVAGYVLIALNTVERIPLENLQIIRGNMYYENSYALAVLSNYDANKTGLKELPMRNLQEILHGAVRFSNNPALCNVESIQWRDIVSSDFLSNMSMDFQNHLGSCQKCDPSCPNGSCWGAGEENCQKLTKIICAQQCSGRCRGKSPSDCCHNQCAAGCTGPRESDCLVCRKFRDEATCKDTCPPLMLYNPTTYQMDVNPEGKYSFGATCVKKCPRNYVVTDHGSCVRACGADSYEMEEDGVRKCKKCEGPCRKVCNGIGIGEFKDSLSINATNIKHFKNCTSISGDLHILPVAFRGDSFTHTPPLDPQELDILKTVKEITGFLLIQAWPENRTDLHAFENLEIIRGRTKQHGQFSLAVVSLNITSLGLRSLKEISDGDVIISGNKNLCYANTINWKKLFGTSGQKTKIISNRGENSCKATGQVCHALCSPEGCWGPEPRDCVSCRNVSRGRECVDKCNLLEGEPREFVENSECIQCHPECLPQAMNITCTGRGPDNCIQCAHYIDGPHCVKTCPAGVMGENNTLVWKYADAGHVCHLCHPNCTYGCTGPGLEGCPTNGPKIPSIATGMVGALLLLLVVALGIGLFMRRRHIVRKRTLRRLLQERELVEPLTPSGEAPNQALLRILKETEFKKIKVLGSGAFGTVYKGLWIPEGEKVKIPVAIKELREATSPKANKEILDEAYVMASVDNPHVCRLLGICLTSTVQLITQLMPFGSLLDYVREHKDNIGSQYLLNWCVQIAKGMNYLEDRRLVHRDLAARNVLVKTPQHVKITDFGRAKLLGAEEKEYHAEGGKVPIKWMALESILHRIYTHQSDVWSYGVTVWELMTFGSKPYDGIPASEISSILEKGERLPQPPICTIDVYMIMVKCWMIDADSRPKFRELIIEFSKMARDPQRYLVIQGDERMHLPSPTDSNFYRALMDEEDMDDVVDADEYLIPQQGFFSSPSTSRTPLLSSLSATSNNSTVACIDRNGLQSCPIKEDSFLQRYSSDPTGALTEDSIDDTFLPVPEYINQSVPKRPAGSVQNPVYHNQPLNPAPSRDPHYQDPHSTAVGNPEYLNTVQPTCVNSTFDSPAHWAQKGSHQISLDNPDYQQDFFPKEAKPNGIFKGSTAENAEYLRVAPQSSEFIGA
Procedure, shortened: as §1

EGFR wildtype (WT) = EGFR wildtype (WT) (Homo sapiens, UniProt P00533); assay: Biochemical EGFR kinase inhibition assay (Lance Ultra TR-FRET), wildtype
Procedure, shortened: as §1

EGFR Del19/C797S = EGFR Del19/C797S (Homo sapiens, UniProt P00533, C797S/DEL746-750); assay: Biochemical EGFR kinase inhibition assay (Lance Ultra TR-FRET), double mutant del19/C797S
Chain of EGFR Del19/C797S (P00533 with tags, fused parts or gaps DEL746-750/C797S): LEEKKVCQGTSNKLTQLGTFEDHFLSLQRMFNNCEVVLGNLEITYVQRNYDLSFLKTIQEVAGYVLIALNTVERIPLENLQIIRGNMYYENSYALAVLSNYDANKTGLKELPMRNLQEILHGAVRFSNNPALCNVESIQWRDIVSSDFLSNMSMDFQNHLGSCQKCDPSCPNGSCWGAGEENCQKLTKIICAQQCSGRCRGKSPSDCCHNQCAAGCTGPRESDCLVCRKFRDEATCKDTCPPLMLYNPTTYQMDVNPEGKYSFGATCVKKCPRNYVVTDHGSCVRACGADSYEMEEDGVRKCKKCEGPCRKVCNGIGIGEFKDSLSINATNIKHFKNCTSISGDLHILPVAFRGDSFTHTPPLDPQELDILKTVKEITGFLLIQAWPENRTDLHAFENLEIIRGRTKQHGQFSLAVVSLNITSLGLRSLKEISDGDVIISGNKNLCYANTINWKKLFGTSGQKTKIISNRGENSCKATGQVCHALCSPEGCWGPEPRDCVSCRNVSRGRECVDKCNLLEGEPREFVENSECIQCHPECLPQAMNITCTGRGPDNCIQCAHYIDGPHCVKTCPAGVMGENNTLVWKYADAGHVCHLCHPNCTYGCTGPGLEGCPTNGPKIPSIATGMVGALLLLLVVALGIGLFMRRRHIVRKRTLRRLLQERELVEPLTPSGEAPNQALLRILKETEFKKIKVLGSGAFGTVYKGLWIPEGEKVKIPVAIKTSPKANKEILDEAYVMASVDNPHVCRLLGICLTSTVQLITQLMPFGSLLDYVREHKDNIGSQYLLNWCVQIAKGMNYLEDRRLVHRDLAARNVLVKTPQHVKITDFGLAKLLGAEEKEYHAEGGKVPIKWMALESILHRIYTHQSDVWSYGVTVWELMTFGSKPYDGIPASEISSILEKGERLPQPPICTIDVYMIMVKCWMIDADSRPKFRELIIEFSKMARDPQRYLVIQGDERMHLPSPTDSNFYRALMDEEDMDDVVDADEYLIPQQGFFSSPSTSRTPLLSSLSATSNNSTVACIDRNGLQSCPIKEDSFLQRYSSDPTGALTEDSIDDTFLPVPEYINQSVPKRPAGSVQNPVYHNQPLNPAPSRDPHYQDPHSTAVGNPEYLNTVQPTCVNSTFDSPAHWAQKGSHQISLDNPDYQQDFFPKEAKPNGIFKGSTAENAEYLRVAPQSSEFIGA
Procedure, shortened: as §1

EGFR Del19/T790M/C797S = EGFR Del19/T790M/C797S (Homo sapiens, UniProt P00533, C797S/DEL746-750/T790M); assay: Biochemical EGFR kinase inhibition assay (Lance Ultra TR-FRET), triple mutant del19/T790M/C797S
Chain of EGFR Del19/T790M/C797S (P00533 with tags, fused parts or gaps DEL746-750/T790M/C797S): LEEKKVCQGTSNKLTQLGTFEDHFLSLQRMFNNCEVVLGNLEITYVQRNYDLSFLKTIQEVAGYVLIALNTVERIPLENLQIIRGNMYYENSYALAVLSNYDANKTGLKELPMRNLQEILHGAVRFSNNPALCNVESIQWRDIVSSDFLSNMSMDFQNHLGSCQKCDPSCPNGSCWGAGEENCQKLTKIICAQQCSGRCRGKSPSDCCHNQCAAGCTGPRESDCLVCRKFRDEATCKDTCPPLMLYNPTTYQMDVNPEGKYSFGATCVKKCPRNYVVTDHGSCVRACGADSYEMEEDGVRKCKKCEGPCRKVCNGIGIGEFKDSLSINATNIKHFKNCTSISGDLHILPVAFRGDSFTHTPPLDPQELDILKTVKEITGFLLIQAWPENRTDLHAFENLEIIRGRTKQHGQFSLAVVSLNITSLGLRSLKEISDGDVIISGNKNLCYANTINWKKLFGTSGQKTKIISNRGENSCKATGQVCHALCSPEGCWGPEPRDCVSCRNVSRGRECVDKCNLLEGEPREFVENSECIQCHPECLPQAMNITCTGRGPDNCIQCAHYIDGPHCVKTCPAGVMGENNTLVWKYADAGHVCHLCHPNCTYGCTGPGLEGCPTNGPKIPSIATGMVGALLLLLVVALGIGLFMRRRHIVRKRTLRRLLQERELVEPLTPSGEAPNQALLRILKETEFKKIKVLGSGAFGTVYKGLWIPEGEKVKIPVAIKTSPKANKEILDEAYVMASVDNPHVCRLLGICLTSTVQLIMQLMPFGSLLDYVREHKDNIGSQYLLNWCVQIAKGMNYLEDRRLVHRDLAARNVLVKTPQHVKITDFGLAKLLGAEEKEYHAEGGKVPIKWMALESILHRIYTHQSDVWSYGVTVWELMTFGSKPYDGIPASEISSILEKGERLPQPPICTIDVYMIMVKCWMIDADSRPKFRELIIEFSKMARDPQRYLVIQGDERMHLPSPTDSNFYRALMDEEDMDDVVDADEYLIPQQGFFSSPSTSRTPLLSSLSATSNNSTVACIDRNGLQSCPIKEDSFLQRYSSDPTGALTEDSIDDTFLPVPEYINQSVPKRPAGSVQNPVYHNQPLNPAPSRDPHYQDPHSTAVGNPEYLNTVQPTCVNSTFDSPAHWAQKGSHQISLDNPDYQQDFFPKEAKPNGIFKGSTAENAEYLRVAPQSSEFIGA
Procedure, shortened: as §1

[1] = ATP at Km, read-out: IC50 L858R/T790M/C797S (nM), Km ATP
[2] = IC50 L858R/T790M/C797S (nM), 100 μM ATP
[3] = ATP at Km, read-out: IC50 L858R/C797S (nM), Km ATP
[4] = IC50 L858R/C797S (nM), 100 μM ATP
[5] = ATP at Km, read-out: IC50 WT (nM), Km ATP
[6] = ATP at Km, read-out: IC50 Del19/C797S (nM), Km ATP
[7] = IC50 Del19/C797S (nM), 100 μM ATP
[8] = ATP at Km, read-out: IC50 Del19/T790M/C797S (nM), Km ATP
[9] = IC50 Del19/T790M/C797S (nM), 100 μM ATP
[10] = Km ATP, read-out: IC50 L858R/T790M/C797S (nM), Km ATP
[11] = Km ATP, read-out: IC50 L858R/C797S (nM), Km ATP
[12] = Km ATP, read-out: IC50 WT (nM), Km ATP
[13] = Km ATP, read-out: IC50 Del19/C797S (nM), Km ATP
[14] = Km ATP, read-out: IC50 Del19/T790M/C797S (nM), Km ATP

Chain of EGFR L858R/T790M/C797S (P00533 25-1210 T790M/C797S/L858R): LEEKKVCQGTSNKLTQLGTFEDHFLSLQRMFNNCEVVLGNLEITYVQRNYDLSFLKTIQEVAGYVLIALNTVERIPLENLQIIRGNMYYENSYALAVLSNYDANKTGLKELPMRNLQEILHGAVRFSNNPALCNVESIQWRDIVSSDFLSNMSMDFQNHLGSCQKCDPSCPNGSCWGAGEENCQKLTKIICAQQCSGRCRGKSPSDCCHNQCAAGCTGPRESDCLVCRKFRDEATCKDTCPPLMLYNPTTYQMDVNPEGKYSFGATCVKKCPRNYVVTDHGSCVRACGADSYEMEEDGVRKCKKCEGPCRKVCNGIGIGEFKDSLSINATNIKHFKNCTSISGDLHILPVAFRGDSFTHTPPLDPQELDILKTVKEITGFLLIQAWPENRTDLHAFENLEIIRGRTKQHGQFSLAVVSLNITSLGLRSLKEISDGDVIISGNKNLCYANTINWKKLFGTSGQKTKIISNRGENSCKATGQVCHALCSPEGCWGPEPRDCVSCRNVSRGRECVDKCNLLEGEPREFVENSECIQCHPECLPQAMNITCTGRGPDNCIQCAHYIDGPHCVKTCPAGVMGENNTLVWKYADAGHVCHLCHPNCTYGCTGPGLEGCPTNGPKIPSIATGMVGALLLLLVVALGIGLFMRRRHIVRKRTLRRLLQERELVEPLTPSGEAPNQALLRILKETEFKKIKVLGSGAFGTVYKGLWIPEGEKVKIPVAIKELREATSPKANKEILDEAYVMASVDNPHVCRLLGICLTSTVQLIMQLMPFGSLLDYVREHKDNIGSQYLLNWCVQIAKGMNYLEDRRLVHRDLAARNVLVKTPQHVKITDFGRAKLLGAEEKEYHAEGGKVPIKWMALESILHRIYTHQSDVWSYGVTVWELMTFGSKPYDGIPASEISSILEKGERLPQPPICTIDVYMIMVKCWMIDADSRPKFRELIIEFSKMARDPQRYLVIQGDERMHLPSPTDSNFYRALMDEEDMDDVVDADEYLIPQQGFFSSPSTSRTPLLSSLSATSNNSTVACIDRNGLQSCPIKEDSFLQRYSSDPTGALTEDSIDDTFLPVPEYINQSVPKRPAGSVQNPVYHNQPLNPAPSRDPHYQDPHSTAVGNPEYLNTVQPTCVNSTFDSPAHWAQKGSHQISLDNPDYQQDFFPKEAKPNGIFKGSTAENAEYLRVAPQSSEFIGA

## CC(C)(O)C1CCN(c2cc(Nc3ccnc(-c4cnn(S(=O)(=O)C5CC5)c4)n3)ncc2C#Cc2cnn(C(F)(F)F)c2)CC1 [Example 329, 2-(1-(2-((2-(1-(Cyclopropylsulfonyl)-1H-pyrazol-4-yl)pyrimidin-4-yl)amino)-5-((1-(trifluoromethyl)-1H-pyrazol-4-yl)ethynyl)pyridin-4-yl)piperidin-4-yl)propan-2-ol]
EGFR L858R/T790M/C797S; [1]
  IC50: 1.7 nM
EGFR L858R/T790M/C797S; [2]
  IC50: 3 nM
EGFR L858R/C797S; [3]
  IC50: 47.6 nM
EGFR L858R/C797S; [4]
  IC50: 125 nM
EGFR wildtype (WT); [5]
  IC50: 700 nM
EGFR wildtype (WT); IC50 WT (nM), 100 μM ATP
  IC50: > 10000 nM
EGFR Del19/C797S; [6]
  IC50: 81.8 nM
EGFR Del19/C797S; [7]
  IC50: 1080 nM
EGFR Del19/T790M/C797S; [8]
  IC50: 21.2 nM
EGFR Del19/T790M/C797S; [9]
  IC50: 5.9 nM

## O=S(=O)(C1CC1)n1cc(-c2nccc(Nc3cc(N4CCC(C5(O)CC5)CC4)c(C#Cc4cnn(C(F)(F)F)c4)cn3)n2)cn1 [Example 330, 1-(1-(2-((2-(1-(Cyclopropylsulfonyl)-1H-pyrazol-4-yl)pyrimidin-4-yl)amino)-5-((1-(trifluoromethyl)-1H-pyrazol-4-yl)ethynyl)pyridin-4-yl)piperidin-4-yl)cyclopropan-1-ol]
EGFR L858R/T790M/C797S; [1]
  IC50: 2.2 nM
EGFR L858R/T790M/C797S; [2]
  IC50: 6.2 nM
EGFR L858R/C797S; [3]
  IC50: 17.6 nM
EGFR L858R/C797S; [4]
  IC50: 45.5 nM
EGFR wildtype (WT); [5]
  IC50: 272 nM
EGFR wildtype (WT); IC50 WT (nM), 100 μM ATP
  IC50: > 10000 nM
EGFR Del19/C797S; [6]
  IC50: 55.5 nM
EGFR Del19/C797S; [7]
  IC50: 771 nM
EGFR Del19/T790M/C797S; [8]
  IC50: 1.9 nM
EGFR Del19/T790M/C797S; [9]
  IC50: 5.2 nM

## O=S(=O)(C1CC1)n1cc(-c2nccc(Nc3cc(N4C[C@@H]5[C@@H](CO)[C@@H]5C4)c(C#Cc4cnn(C(F)(F)F)c4)cn3)n2)cn1 [Example 331, ((1R,5S,6r)-3-(2-((2-(1-(Cyclopropylsulfonyl)-1H-pyrazol-4-yl)pyrimidin-4-yl)amino)-5-((1-(trifluoromethyl)-1H-pyrazol-4-yl)ethynyl)pyridin-4-yl)-3-azabicyclo[3.1.0]hexan-6-yl)methanol]
EGFR L858R/T790M/C797S; [2]
  IC50: 13.9 nM
EGFR L858R/T790M/C797S; [10]
  IC50: 5 nM
EGFR L858R/C797S; [4]
  IC50: 9130 nM
EGFR L858R/C797S; [11]
  IC50: 173 nM
EGFR wildtype (WT); IC50 WT (nM), 100 μM ATP
  IC50: > 10000 nM
EGFR wildtype (WT); [12]
  IC50: 309 nM
EGFR Del19/C797S; [7]
  IC50: 245 nM
EGFR Del19/C797S; [13]
  IC50: 87.5 nM
EGFR Del19/T790M/C797S; [9]
  IC50: 10.3 nM
EGFR Del19/T790M/C797S; [14]
  IC50: 6.1 nM

## O=S(=O)(C1CC1)n1cc(-c2nccc(Nc3cc(N4[C@@H]5CC[C@H]4C[C@H](CO)C5)c(C#Cc4cnn(C(F)(F)F)c4)cn3)n2)cn1 [Example 332, ((1R,3s,5S)-8-(2-((2-(1-(Cyclopropylsulfonyl)-1H-pyrazol-4-yl)pyrimidin-4-yl)amino)-5-((1-(trifluoromethyl)-1H-pyrazol-4-yl)ethynyl)pyridin-4-yl)-8-azabicyclo[3.2.1]octan-3-yl)methanol]
EGFR L858R/T790M/C797S; [2]
  IC50: 21.6 nM
EGFR L858R/T790M/C797S; [10]
  IC50: 7.8 nM
EGFR L858R/C797S; [4]
  IC50: > 10000 nM
EGFR L858R/C797S; [11]
  IC50: 845 nM
EGFR wildtype (WT); IC50 WT (nM), 100 μM ATP
  IC50: > 10000 nM
EGFR wildtype (WT); [12]
  IC50: 801 nM
EGFR Del19/C797S; [7]
  IC50: 1730 nM
EGFR Del19/C797S; [13]
  IC50: 800 nM
EGFR Del19/T790M/C797S; [9]
  IC50: 23.9 nM
EGFR Del19/T790M/C797S; [14]
  IC50: 18.9 nM

## O=S(=O)(C1CC1)n1cc(-c2nccc(Nc3cc(N4C[C@H]5C[C@@]5(CO)C4)c(C#Cc4cnn(C(F)(F)F)c4)cn3)n2)cn1 [Example 333, ((1 S,5S)-3-(2-((2-(1-(Cyclopropylsulfonyl)-1H-pyrazol-4-yl)pyrimidin-4-yl)amino)-5-((1-(trifluoromethyl)-1H-pyrazol-4-yl)ethynyl)pyridin-4-yl)-3-azabicyclo[3.1.0]hexan-1-yl)methanol]
EGFR L858R/T790M/C797S; [2]
  IC50: 13 nM
EGFR L858R/T790M/C797S; [10]
  IC50: 3.5 nM
EGFR L858R/C797S; [4]
  IC50: > 10000 nM
EGFR L858R/C797S; [11]
  IC50: 245 nM
EGFR wildtype (WT); IC50 WT (nM), 100 μM ATP
  IC50: > 10000 nM
EGFR wildtype (WT); [12]
  IC50: 240 nM
EGFR Del19/C797S; [7]
  IC50: 255 nM
EGFR Del19/C797S; [13]
  IC50: 133 nM
EGFR Del19/T790M/C797S; [9]
  IC50: 17.8 nM
EGFR Del19/T790M/C797S; [14]
  IC50: 6.8 nM

## CC(=O)C1CCN(c2cc(Nc3ccnc(-c4cnn(S(=O)(=O)C5CC5)c4)n3)ncc2C#Cc2cnn(C(F)(F)F)c2)CC1 [Example 334, 1-(1-(2-((2-(1-(Cyclopropylsulfonyl)-1H-pyrazol-4-yl)pyrimidin-4-yl)amino)-5-((1-(trifluoromethyl)-1H-pyrazol-4-yl)ethynyl)pyridin-4-yl)piperidin-4-yl)ethan-1-one]
EGFR L858R/T790M/C797S; [2]
  IC50: 14.8 nM
EGFR L858R/T790M/C797S; [10]
  IC50: 3.3 nM
EGFR L858R/C797S; [4]
  IC50: 7530 nM
EGFR L858R/C797S; [11]
  IC50: 136 nM
EGFR wildtype (WT); IC50 WT (nM), 100 μM ATP
  IC50: > 10000 nM
EGFR wildtype (WT); [12]
  IC50: 276 nM
EGFR Del19/C797S; [7]
  IC50: 1840 nM
EGFR Del19/C797S; [13]
  IC50: 239 nM
EGFR Del19/T790M/C797S; [9]
  IC50: 8 nM
EGFR Del19/T790M/C797S; [14]
  IC50: 5.6 nM

## CN(C)CCC1CCN(c2cc(Nc3ccnc(-c4cnn(S(=O)(=O)C5CC5)c4)n3)ncc2C#Cc2cnn(C(F)(F)F)c2)CC1 [Example 335, 2-(1-(Cyclopropylsulfonyl)-1H-pyrazol-4-yl)-N-(4-(4-(2-(dimethylamino)ethyl)piperidin-1-yl)-5-((1-(trifluoromethyl)-1H-pyrazol-4-yl)ethynyl)pyridin-2-yl)pyrimidin-4-amine]
EGFR L858R/T790M/C797S; [2]
  IC50: 0.4 nM
EGFR L858R/T790M/C797S; [10]
  IC50: 0.2 nM
EGFR L858R/C797S; [4]
  IC50: 53.4 nM
EGFR L858R/C797S; [11]
  IC50: 4.3 nM
EGFR wildtype (WT); IC50 WT (nM), 100 μM ATP
  IC50: 4970 nM
EGFR wildtype (WT); [12]
  IC50: 9.2 nM
EGFR Del19/C797S; [7]
  IC50: 2.3 nM
EGFR Del19/C797S; [13]
  IC50: 2.1 nM
EGFR Del19/T790M/C797S; [9]
  IC50: 0.4 nM
EGFR Del19/T790M/C797S; [14]
  IC50: 0.4 nM
